Among the data in US6541203B2, “Detecting structural or synthetic information about chemical compounds” (President and Fellows of Harvard College, priority 1998, dated 2003) are Staining of beads and Kd values, retold here.

Molecules are shown by their SMILES.

The test system of one experiment is anti-dig. Description: Detection of hapten on TANTAGEL beads with anti-dig and AP-coupled secondary antibody. Type of experiment: binding, mouse. Particulars: 100% coupling on the beads. Here is the method: Ninety (90) micrometer TANTAGEL-amine beads were mixed with dig-NHS ester at different concentrations to covalently label the beads with dig. Dig-NHS was added in amounts sufficient to label 100%, 10%, 1%, 0.1%, 0.01% and 0.001% of the amino groups. The remaining amino groups were capped with acetic anhydride, and the beads were washed.
Dig-labeled beads were incubated with anti-dig (1 microgram/ml) in the presence of BSA and buffer. The beads were washed, incubated with alkaline phosphatase (AP)-coupled goat anti-mouse antibody, and washed again. Then a chromogenic precipitating substrate (commercially available) for detecting AP was added. Blue color on the beads indicates the presence of AP, and thus effective detection of the dig hapten by antibody.

The target of a further experiment is RNA molecules. Particulars: specific RNA molecules; cited from earlier work.

Turning to `c1cc2ccc3cccc4ccc(c1)c2c34` [pyrene], the Staining of beads entry with anti-dig is reported as “no staining”.

Usually Kd stands for the equilibrium constant for the complex coming apart. Regarding `N=C(N)NCCC[C@@H](N)C(=O)O` [D-arginine], at RNA molecules, the Kd is 1700 nM.
